# Measured values published in PubChem BioAssay (NCI).
#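 Interpolation was linear, between the two tested concentrations surrounding the appropriate level; five concentrations were tested over 48 hours in 96-well plates. The concentration for full growth arrest is given as TGI.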 Where a SMILES comes first, the peptide text is derived from it. The star is where a group is joined. Boc = CC(C)(C)OC(=O)*
# Columns and labels:
# Assay in all cases: growth of human tumour cells (NCI), 48 h
# NCI-H23 lung = test system: NCI-H23 lung
# SNB-75 CNS = test system: SNB-75 CNS
# A549 NSCLC = test system: A549 NSCLC
# MDA-MB-231 breast = test system: MDA-MB-231 breast
# HCT-15 colon = test system: HCT-15 colon
# MDA-N = test system: MDA-N
# OVCAR-3 ovarian = test system: OVCAR-3 ovarian
# LOX IMVI melanoma = test system: LOX IMVI melanoma
# IGROV1 ovarian = test system: IGROV1 ovarian
# RPMI-8226 leukemia = test system: RPMI-8226 leukemia
# 786-0 renal = test system: 786-0 renal
# SK-MEL-2 melanoma = test system: SK-MEL-2 melanoma
# SNB-19 CNS = test system: SNB-19 CNS
# RXF 393 renal = test system: RXF 393 renal
SMILES,TGI (NCI-H23 lung) [µM],TGI (SNB-75 CNS) [µM],TGI (A549 NSCLC) [µM],TGI (MDA-MB-231 breast) [µM],TGI (HCT-15 colon) [µM],TGI (MDA-N) [µM],TGI (OVCAR-3 ovarian) [µM],TGI (LOX IMVI melanoma) [µM],TGI (IGROV1 ovarian) [µM],TGI (RPMI-8226 leukemia) [µM],TGI (786-0 renal) [µM],TGI (SK-MEL-2 melanoma) [µM],TGI (SNB-19 CNS) [µM],TGI (RXF 393 renal) [µM]
Brc1ccc2c(c1)C1=C(CO2)Cc2ccccc2O1,32.5,43,48,30.3,38.4,27,31.8,31.1,32.7,61.8,43.7,34.3,,
COc1cc2c(cc1OCCCC(=O)Nc1cc(C(=O)Nc3cc(C(=O)NCCCN(C)C)n(C)n3)n(C)n1)N=CC1CCCN1C2=O (centres undefined),39.1,,> 100,39.5,37.6,31.6,33,57,28.2,40.3,35.5,31.2,34.2,33.6
CC(Nc1cc(Cl)cc(Cl)c1)c1ccncc1 (centres undefined),71.1,63.1,> 100,,> 100,45.6,35.7,24.8,31.8,42.5,51.3,,> 100,71.3
CC1=C2N3C[C@@H](n4c(=O)n(C)c(=O)n43)C23CCC1n1c(=O)n(C)c(=O)n13,> 100,> 100,,,52.8,,,> 100,> 100,> 100,> 100,,> 100,
CC1(C)CCOC(=O)C(Cl)CC1Cl (centres undefined),> 100,,> 100,> 100,> 100,> 100,> 100,> 100,> 100,,> 100,> 100,> 100,> 100
COC(=O)C(Cc1ccccc1)NC(=O)CNC(=O)CSc1nnc(COc2ccc(Cl)cc2)n1-c1ccccc1 (centres undefined),35.6,37.1,34.5,32.7,36.4,,30.9,13.8,29.1,21.8,30.5,33.8,31.4,33.1
COc1cc(C(C#N)NNC(=O)c2ccccc2O)ccc1O (centres undefined),10.4,8.46,> 100,,> 100,,48.5,> 100,> 100,> 100,> 100,> 100,,6.3
CCCc1ccc(N=Cc2cc(OC)c(OC)c(OC)c2)cc1,> 100,> 100,> 100,,> 54.6,,> 100,> 100,> 100,> 65.8,> 100,> 100,> 100,> 100
CC(NC(=O)C(NC(=O)OC(C)(C)C)C(C)C)C(=O)NCC(=O)O (stereo not drawn) (Boc-Val-Ala-Gly-OH; configuration not given here),> 100,,> 100,,> 100,> 100,> 100,,> 100,> 100,> 100,> 100,> 100,> 100
